Results from patent US12371428B2 (Exelixis, Inc., priority 2019, dated 2025).

Tests used:
[1] = target: Human KDR (residues 790-1356) (Homo sapiens (Human), UniProt P35968); test: Human KDR kinase assay, HTRF KinEase (Example B-2); assay type: biochemical; conditions: protocol of Example B-2 (other compounds)
Procedure, shortened: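 Ten compound concentrations (3% DMSO final) were pre-plated, then KDR (790-1356) with biotinylated peptide in Mg/Mn/DTT buffer was added; ATP at Km (4.0 μM) started a 40 min room-temperature reaction. Detection used Eu-TK antibody and SA-XL665 in EDTA buffer; activity normalized to DMSO and reference inhibitor, IC50 by logistic fit.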

[2] = target: Human MER (residues 528-999) (Homo sapiens (Human), UniProt Q12866); test: Human Mer kinase assay, HTRF KinEase (Example C-2); assay type: biochemical; conditions: protocol of Example C-2 (other compounds)
Procedure, shortened: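 HTRF KinEase TK assay with MER 528-999 (1 ng/well) in enzymatic buffer plus 5 mM MgCl2 and 1 mM DTT, biotinylated peptide substrate and ATP at Km (40 μM), 3% DMSO final, 60 min at room temperature. Stopped with EDTA detection mix (SA-XL665, TK antibody-Eu3+), read at 665/620 nm after 60 min; IC50 from 10-point 4-parameter fit, normalized to DMSO and 1 μM reference.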

[3] = target: Met (phospho-Met, HGF-stimulated PC-3 prostate cancer cells) (Homo sapiens (Human), UniProt P08581); test: Met autophosphorylation ELISA in PC-3 cells (Example F); assay type: cell-based; conditions: cellular activity; Met autophosphorylation ELISA in PC-3 cells; read-out: c-Met IC50
Procedure, shortened: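 IC50 values derive from a 4-parameter logistic fit of phospho-Met (panTyr) sandwich ELISA signals in PC-3 lysates, scaled between DMSO and reference-inhibitor wells. Cells, starved 3 h in serum-free medium, had 1 h compound exposure (8 doses, 0.3% DMSO) before 10 min stimulation with 100 ng/mL HGF.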

[4] = target: KDR (phospho-KDR, VEGF165-stimulated HUVEC cells) (Homo sapiens (Human), UniProt P35968); test: KDR autophosphorylation ELISA in HUVEC cells (Example G); assay type: cell-based; conditions: cellular activity; KDR autophosphorylation ELISA in HUVEC cells
Procedure, shortened: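 Read-out is phospho-KDR measured by ELISA in lysates of VEGF165-stimulated (100 ng/mL, 5 min) HUVEC that were serum-starved 24 h and then pre-exposed 1 h to compound across 8 doses in 0.3% DMSO. Unstimulated lysates defined 0% and stimulated vehicle lysates 100% activity; IC50 values come from 4-parameter logistic regression.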

Sequence of KDR (phospho-KDR, VEGF165-stimulated HUVEC cells) (P35968 20-1356): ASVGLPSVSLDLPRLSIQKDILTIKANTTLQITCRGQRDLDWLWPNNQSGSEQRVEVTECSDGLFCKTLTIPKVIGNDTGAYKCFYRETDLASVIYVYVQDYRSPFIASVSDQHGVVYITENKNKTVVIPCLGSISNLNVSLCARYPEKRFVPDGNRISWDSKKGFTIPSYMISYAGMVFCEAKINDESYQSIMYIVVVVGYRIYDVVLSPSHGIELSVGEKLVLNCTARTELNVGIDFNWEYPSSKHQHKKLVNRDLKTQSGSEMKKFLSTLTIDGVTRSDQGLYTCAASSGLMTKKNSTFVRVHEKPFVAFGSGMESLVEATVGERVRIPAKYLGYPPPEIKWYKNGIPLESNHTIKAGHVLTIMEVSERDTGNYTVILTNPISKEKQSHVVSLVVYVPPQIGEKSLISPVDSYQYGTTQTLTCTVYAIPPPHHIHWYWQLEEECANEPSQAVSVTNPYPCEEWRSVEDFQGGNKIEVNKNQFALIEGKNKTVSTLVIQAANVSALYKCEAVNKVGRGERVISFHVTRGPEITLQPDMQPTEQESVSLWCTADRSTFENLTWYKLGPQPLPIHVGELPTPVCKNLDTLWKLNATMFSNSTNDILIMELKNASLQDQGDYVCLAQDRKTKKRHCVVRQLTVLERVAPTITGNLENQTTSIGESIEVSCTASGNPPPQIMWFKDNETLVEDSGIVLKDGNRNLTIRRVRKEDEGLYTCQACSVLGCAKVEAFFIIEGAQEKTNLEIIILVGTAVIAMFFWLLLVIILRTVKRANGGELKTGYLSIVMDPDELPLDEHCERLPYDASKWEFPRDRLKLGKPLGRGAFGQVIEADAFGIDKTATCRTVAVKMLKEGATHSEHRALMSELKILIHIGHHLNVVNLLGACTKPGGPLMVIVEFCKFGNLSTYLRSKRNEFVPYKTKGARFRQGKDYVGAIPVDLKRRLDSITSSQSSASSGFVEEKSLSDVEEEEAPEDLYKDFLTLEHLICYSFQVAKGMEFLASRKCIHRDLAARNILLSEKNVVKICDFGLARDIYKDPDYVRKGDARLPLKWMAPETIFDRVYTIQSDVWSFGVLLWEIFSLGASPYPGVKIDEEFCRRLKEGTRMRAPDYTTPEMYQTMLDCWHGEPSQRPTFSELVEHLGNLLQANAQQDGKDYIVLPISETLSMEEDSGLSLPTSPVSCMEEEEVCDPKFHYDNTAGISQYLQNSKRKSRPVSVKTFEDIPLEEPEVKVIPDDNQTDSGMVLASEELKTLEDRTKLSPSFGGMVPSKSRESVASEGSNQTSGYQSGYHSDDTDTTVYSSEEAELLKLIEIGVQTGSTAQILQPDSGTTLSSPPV
Sequence of Human MER (residues 528-999) (Q12866 528-999): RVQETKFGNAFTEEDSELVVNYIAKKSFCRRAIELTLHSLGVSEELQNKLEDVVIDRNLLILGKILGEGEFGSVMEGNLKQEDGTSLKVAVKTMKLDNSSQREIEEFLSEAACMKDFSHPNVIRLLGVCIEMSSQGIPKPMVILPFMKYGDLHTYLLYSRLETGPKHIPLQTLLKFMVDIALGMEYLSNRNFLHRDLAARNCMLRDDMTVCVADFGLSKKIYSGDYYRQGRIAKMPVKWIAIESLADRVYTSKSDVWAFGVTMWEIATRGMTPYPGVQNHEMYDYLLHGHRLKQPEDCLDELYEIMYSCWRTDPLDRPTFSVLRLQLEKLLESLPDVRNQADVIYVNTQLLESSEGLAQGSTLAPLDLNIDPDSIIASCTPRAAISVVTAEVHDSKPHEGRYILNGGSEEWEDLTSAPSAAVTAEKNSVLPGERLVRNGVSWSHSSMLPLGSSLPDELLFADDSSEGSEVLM
Sequence of Human KDR (residues 790-1356) (P35968 790-1356): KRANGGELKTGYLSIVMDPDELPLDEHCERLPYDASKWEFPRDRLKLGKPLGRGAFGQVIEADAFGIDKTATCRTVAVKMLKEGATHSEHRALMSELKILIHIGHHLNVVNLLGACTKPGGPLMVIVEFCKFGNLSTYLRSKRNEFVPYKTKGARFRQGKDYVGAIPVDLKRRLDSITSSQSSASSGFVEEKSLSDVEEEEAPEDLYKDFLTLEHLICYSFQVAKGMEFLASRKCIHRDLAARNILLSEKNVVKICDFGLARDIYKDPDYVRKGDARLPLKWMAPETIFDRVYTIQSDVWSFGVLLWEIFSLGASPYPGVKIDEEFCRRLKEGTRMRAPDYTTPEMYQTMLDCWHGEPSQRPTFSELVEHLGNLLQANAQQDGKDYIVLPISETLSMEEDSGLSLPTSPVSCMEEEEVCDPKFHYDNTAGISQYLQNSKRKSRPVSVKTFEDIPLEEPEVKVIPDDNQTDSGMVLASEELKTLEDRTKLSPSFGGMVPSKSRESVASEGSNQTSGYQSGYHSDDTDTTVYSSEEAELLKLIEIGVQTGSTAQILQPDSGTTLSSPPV
Sequence of Met (phospho-Met, HGF-stimulated PC-3 prostate cancer cells) (P08581 25-1390): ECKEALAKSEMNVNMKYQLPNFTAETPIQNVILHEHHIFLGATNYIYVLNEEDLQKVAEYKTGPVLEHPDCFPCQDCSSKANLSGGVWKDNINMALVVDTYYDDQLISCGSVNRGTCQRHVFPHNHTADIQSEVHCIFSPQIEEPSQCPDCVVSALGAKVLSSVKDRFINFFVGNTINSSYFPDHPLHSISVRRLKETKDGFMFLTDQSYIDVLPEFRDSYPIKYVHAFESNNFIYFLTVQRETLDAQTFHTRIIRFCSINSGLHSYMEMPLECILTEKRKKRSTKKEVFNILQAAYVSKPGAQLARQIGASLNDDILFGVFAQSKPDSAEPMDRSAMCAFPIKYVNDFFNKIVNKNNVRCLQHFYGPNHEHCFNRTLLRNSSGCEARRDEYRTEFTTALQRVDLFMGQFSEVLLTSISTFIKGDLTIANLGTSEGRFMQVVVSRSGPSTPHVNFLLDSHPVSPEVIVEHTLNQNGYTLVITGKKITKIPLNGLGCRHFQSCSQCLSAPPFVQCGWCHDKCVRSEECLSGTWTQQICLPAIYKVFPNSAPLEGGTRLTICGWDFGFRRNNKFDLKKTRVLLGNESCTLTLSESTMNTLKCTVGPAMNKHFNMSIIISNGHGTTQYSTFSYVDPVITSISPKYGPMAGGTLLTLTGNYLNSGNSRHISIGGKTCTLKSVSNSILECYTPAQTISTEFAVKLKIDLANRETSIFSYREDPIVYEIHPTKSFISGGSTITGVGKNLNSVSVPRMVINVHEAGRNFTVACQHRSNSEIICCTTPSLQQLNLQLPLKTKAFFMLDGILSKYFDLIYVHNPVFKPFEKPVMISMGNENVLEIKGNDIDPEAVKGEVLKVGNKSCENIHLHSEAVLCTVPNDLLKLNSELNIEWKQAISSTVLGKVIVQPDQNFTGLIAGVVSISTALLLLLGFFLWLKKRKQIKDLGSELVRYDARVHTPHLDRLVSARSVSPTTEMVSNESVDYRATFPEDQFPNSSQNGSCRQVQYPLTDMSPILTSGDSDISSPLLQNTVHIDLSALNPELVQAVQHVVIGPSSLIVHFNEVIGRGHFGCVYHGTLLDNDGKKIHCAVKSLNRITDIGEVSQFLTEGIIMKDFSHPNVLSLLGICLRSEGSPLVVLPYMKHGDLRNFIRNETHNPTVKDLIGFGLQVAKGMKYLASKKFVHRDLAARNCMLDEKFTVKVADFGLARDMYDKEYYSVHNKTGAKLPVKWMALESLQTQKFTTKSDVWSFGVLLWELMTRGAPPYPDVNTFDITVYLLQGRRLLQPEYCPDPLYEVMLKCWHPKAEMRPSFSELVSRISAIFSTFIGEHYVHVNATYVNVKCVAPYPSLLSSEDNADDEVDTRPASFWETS

Row | SMILES | IC50 [1] [nM] | IC50 [2] [nM] | IC50 [3] [nM] | IC50 [4] [nM]
1 | COc1cc2nccc(Oc3ccc(NC(=O)c4cn(CC(F)(F)F)c(C)c(-c5ccc(F)cc5)c4=O)cc3F)c2nc1OC [Compound 74, N-[4-[(6,7-Dimethoxy-1,5-naphthyridin-4-yl)oxy]-3-fluorophenyl]-5-(4-fluorophenyl)-6-methyl-4-oxo-1-(2,2,2-trifluoroethyl)pyridine-3-carboxamide] | < 100 | < 100 | < 100 | 100 to 300
2 | COc1cnc2c(Oc3ccc(NC(=O)c4cnc(C)c(-c5ccc(F)cc5)c4O)cc3F)ccnc2c1 [Compound 64, N-[3-Fluoro-4-[(7-methoxy-1,5-naphthyridin-4-yl)oxy]phenyl]-5-(4-fluorophenyl)-4-hydroxy-6-methylpyridine-3-carboxamide] | < 100 | < 100 | < 100 | < 100
3 | Cc1cc2nccc(Oc3ccc(NC(=O)c4cnc(C)c(-c5ccc(F)cc5)c4O)cc3F)c2nc1F [Compound 426, N-[3-fluoro-4-[(6-fluoro-7-methyl-1,5-naphthyridin-4-yl)oxy]phenyl]-5-(4-fluorophenyl)-4-hydroxy-6-methylpyridine-3-carboxamide] | 100 to 300 | < 100 | < 100 | < 100
4 | COc1cc2nccc(Oc3ccc(NC(=O)c4cn(C5(C(F)(F)F)CC5)cc(-c5ccc(F)cc5)c4=O)cc3F)c2nc1OC [Compound 59, N-[4-[(6,7-Dimethoxy-1,5-naphthyridin-4-yl)oxy]-3-fluorophenyl]-5-(4-fluorophenyl)-4-oxo-1-[1-(trifluoromethyl)cyclopropyl]pyridine-3-carboxamide] | 100 to 300 | < 100 | < 100 | > 300
5 | COc1cc2nccc(Oc3ccc(NC(=O)c4cn(C(C)(C)C)cc(-c5ccc(F)cc5)c4=O)cc3F)c2nc1OC [Compound 48, 1-tert-Butyl-N-[4-[(6,7-dimethoxy-1,5-naphthyridin-4-yl)oxy]-3-fluorophenyl]-5-(4-fluorophenyl)-4-oxopyridine-3-carboxamide] | > 300 | < 100 | < 100 | > 300
6 | COc1cc2nccc(Oc3ccc(NC(=O)c4cn(C5CC5)c(C)c(-c5ccc(F)cc5)c4=O)cc3F)c2nc1OC [Compound 433, 1-cyclopropyl-N-[4-[(6,7-dimethoxy-1,5-naphthyridin-4-yl)oxy]-3-fluorophenyl]-5-(4-fluorophenyl)-6-methyl-4-oxopyridine-3-carboxamide] | > 300 | < 100 | < 100 | > 300
7 | COc1cc2nccc(Oc3ccc(NC(=O)c4cnc(C)c(-c5ccc(F)cc5)c4O)cc3)c2nc1OC(C)C [Compound 413, 5-(4-fluorophenyl)-4-hydroxy-N-[4-[(7-methoxy-6-propan-2-yloxy-1,5-naphthyridin-4-yl)oxy]phenyl]-6-methylpyridine-3-carboxamide] | < 100 | < 100 | < 100 | < 100
8 | COc1cc2nccc(Oc3ccc(NC(=O)c4cn(C)c(C)c(-c5ccc(F)cc5)c4=O)cc3)c2nc1OC [Compound 65, N-[4-[(6,7-Dimethoxy-1,5-naphthyridin-4-yl)oxy]phenyl]-5-(4-fluorophenyl)-1,6-dimethyl-4-oxopyridine-3-carboxamide] | < 100 | < 100 | < 100 | < 100
9 | COc1cc2nccc(Oc3ccc(NC(=O)c4nn(C)c(C)c(-c5ccc(F)cc5)c4=O)cc3F)c2nc1OC [Compound 92, N-[4-[(6,7-Dimethoxy-1,5-naphthyridin-4-yl)oxy]-3-fluorophenyl]-5-(4-fluorophenyl)-1,6-dimethyl-4-oxopyridazine-3-carboxamide] | 100 to 300 | < 100 | < 100 | < 100
10 | COc1ccc2nccc(Oc3ccc(NC(=O)c4n[nH]c(C)c(-c5ccc(F)cc5)c4=O)cc3F)c2n1 [Compound 89, N-[3-Fluoro-4-[(6-methoxy-1,5-naphthyridin-4-yl)oxy]phenyl]-5-(4-fluorophenyl)-6-methyl-4-oxo-1H-pyridazine-3-carboxamide] | < 100 | < 100 | < 100 | < 100
11 | Cc1cc(F)ccc1-c1c(C)ncc(C(=O)Nc2ccc(Oc3ccnc4cc(C)c(F)nc34)c(F)c2)c1O [Compound 427, N-[3-fluoro-4-[(6-fluoro-7-methyl-1,5-naphthyridin-4-yl)oxy]phenyl]-5-(4-fluoro-2-methylphenyl)-4-hydroxy-6-methylpyridine-3-carboxamide] | > 300 | < 100 | < 100 | < 100
12 | Cc1cc2nccc(Oc3ccc(NC(=O)c4cnc(C)c(-c5ccc(F)cc5)c4O)cc3F)c2nc1OCCCN1CCOCC1 [Compound 438, N-[3-fluoro-4-[[7-methyl-6-(3-morpholin-4-ylpropoxy)-1,5-naphthyridin-4-yl]oxy]phenyl]-5-(4-fluorophenyl)-4-hydroxy-6-methylpyridine-3-carboxamide] | < 100 | < 100 | < 100 | < 100
13 | Cc1cc(F)ccc1-c1c(C)nc(C)c(C(=O)Nc2ccc(Oc3ccnc4cc(C)c(F)nc34)c(F)c2)c1O [Compound 428, N-[3-fluoro-4-[(6-fluoro-7-methyl-1,5-naphthyridin-4-yl)oxy]phenyl]-5-(4-fluoro-2-methylphenyl)-4-hydroxy-2,6-dimethylpyridine-3-carboxamide] | 100 to 300 | < 100 | < 100 | < 100
14 | COc1cnc2c(Oc3ccc(NC(=O)c4cnc(C)c(-c5c(C)cc(F)cc5C)c4O)cc3F)ccnc2c1 [Compound 417, 5-(4-fluoro-2,6-dimethylphenyl)-N-[3-fluoro-4-[(7-methoxy-1,5-naphthyridin-4-yl)oxy]phenyl]-4-hydroxy-6-methylpyridine-3-carboxamide] | > 300 | 100 to 300 | < 100 | 100 to 300
15 | COc1cc2nccc(Oc3ccc(NC(=O)c4c(C)n(C)cc(-c5ccc(F)cc5)c4=O)cc3F)c2nc1OC [Compound 81, N-[4-[(6,7-Dimethoxy-1,5-naphthyridin-4-yl)oxy]-3-fluorophenyl]-5-(4-fluorophenyl)-1,2-dimethyl-4-oxopyridine-3-carboxamide] | < 100 | < 100 | < 100 | < 100
16 | COc1cc2nccc(Oc3ncc(NC(=O)c4cn(-c5ccn(C)n5)cc(-c5ccc(F)cc5)c4=O)cc3F)c2cc1OC [Compound 402, N-[6-(6,7-dimethoxyquinolin-4-yl)oxy-5-fluoropyridin-3-yl]-5-(4-fluorophenyl)-1-(1-methylpyrazol-3-yl)-4-oxopyridine-3-carboxamide] | > 300 | < 100 | < 100 | > 300
17 | COc1cc2nccc(Oc3ccc(NC(=O)c4n[nH]c(C)c(-c5ccc(F)cc5)c4=O)cc3F)c2nc1OC [Compound 88, N-[4-[(6,7-Dimethoxy-1,5-naphthyridin-4-yl)oxy]-3-fluorophenyl]-5-(4-fluorophenyl)-6-methyl-4-oxo-1H-pyridazine-3-carboxamide] | < 100 | < 100 | < 100 | < 100
18 | COc1ccc2nccc(Oc3ccc(NC(=O)c4c(C)nc(C)c(-c5ccc(F)cc5)c4O)cc3F)c2n1 [Compound 67, N-[3-Fluoro-4-[(6-methoxy-1,5-naphthyridin-4-yl)oxy]phenyl]-5-(4-fluorophenyl)-4-hydroxy-2,6-dimethylpyridine-3-carboxamide] | < 100 | < 100 | < 100 | < 100
19 | COc1cc2nccc(Oc3ccc(NC(=O)c4c5n(cc(-c6ccc(F)cc6)c4=O)CCC5)cc3)c2nc1OC [Compound 407, N-[4-[(6,7-dimethoxy-1,5-naphthyridin-4-yl)oxy]phenyl]-6-(4-fluorophenyl)-7-oxo-2,3-dihydro-1H-indolizine-8-carboxamide] | 100 to 300 | < 100 | < 100 | > 300
20 | COc1cc2nccc(Oc3ccc(NC(=O)c4cn(C5CC5)c(C)c(-c5ccc(F)cc5)c4=O)cc3)c2nc1OC [Compound 434, 1-cyclopropyl-N-[4-[(6,7-dimethoxy-1,5-naphthyridin-4-yl)oxy]phenyl]-5-(4-fluorophenyl)-6-methyl-4-oxopyridine-3-carboxamide] | > 300 | < 100 | < 100 | > 300
